Experiment: Human HepG2 cell viability assay in 384 well format
Format: toxicity, cell-based
Design: dose 125 nL, time 70.5 hour; cytotoxicity at 70.5 h: concentration not given beside the values
Conditions: HepG2 cells, read-out: Inhibition
CC(C)c1nnc2n1CCN(C(=O)c1ccc(S(C)(=O)=O)cc1)C2 showed a cytotoxicity at 70.5 h of -5.36%. Cc1cn2c(n1)CCC(NC(=O)c1cnc(C)nc1C(C)C)C2 (centres undefined) gave a cytotoxicity at 70.5 h of -9%. Molecule CCc1nc(C2CCCN(C(=O)CN(C)S(C)(=O)=O)C2)no1 (centres undefined) has a cytotoxicity at 70.5 h of 3.45%. Cc1n[nH]c(C2CN(C(=O)c3ccnc(C4CC4)n3)CCO2)n1 (centres undefined) gave a cytotoxicity at 70.5 h of -10.4%. In the case of CCNC(=O)N1CCCC(c2noc(CC)n2)C1 (centres undefined), the cytotoxicity at 70.5 h was -3.02%. For O=C(NCCC(=O)N1CCCc2ccccc21)c1c(O)cc(F)cc1F, the cytotoxicity at 70.5 h was -9.76%. With O=C(NCCC(=O)N1CCCCCC1)c1c(O)cc(F)cc1F the cytotoxicity at 70.5 h was 9.05%. In the case of Cc1cc(CN2Cc3ccccc3CC2c2nnc(C)o2)on1 (centres undefined), the cytotoxicity at 70.5 h was -6.94%. Work on Cc1cnn(CC2CCCN2C(=O)CCc2ccsc2)c1 (centres undefined) yielded a cytotoxicity at 70.5 h of -5.3%. c1ccc(CCN2CCOC(Cn3cccn3)C2)nc1 (centres undefined) gave a cytotoxicity at 70.5 h of -4.02%. Molecule Cc1nc(C)n(CC2CCCN(CCC(=O)N3CCCCC3)C2)n1 (centres undefined) has a cytotoxicity at 70.5 h of -1.55%. For CCn1cnnc1CNC(=O)N1CCC(Cc2cccnc2)CC1, the cytotoxicity at 70.5 h was 34.8%. In the case of CCn1cc(CN2CCCN(C(=O)C3=NN(C)C(=O)CC3)CC2)cn1, the cytotoxicity at 70.5 h was 17.3%. In the case of Cc1nc(CN2CCCCC2Cn2cncn2)nc2ccccc12 (centres undefined), the cytotoxicity at 70.5 h was 20.9%. With Cc1nc(CN(C)C2CCN(Cc3ccno3)C2)no1 (centres undefined) the cytotoxicity at 70.5 h was 29.4%. With O=C(CCNC(=O)c1ccoc1)NCc1ccccc1F the cytotoxicity at 70.5 h was -11%. Work on Cn1cnnc1C1CCCN(C(=O)c2ccc3c(c2)OCCCO3)C1 (centres undefined) yielded a cytotoxicity at 70.5 h of -2.02%. In the case of COCCOCc1cccc(NC(=O)N2CCCC2c2ccncc2)c1 (centres undefined), the cytotoxicity at 70.5 h was 1.97%. For Cn1cnnc1C1CCCN(C(=O)NCc2ccc3c(c2)OCO3)C1 (centres undefined), the cytotoxicity at 70.5 h was -0.469%. With c1cc(CN2CCN(Cc3cscn3)CC2)cs1 the cytotoxicity at 70.5 h was -6.89%. Molecule CCc1noc(C)c1C(=O)N(C)Cc1ncc(C)c(OC)c1C has a cytotoxicity at 70.5 h of -30.2%. O=C(CCc1ccccn1)N1CCN(C(=O)CC2CCCCC2)CC1 gave a cytotoxicity at 70.5 h of -4.45%. Work on Cc1nc(C)n(CC2CCCN2Cc2cc(C)on2)n1 (centres undefined) yielded a cytotoxicity at 70.5 h of -1.6%. Molecule O=C1COc2c(cccc2C(=O)N2CCCCC2Cn2cccn2)N1 (centres undefined) has a cytotoxicity at 70.5 h of -4.26%. For O=C(CC1CCCCC1)N1CCN(C(=O)NCc2ccccn2)CC1, the cytotoxicity at 70.5 h was -9.56%. In the case of CC(NC(=O)NCCOc1ccc(F)c(F)c1)c1nncn1C (centres undefined), the cytotoxicity at 70.5 h was -0.895%. With Cc1cc(C)n(CC2CCCCN2Cc2cscn2)n1 (centres undefined) the cytotoxicity at 70.5 h was -13.4%. In the case of CNc1cc2c(nn1)CCN(C(=O)c1cc(F)cc(F)c1)C2, the cytotoxicity at 70.5 h was -10%. Molecule CNc1cc2c(nn1)CCN(C(=O)c1ccc(-n3nccc3C)cc1)C2 has a cytotoxicity at 70.5 h of -5.27%. Cc1nc(C)n(CC2CCCN2Cc2cscn2)n1 (centres undefined) gave a cytotoxicity at 70.5 h of -9.32%. With CN1CCN(C(=O)CC2CCN(CCc3ccccn3)CC2)CC1 the cytotoxicity at 70.5 h was -0.784%. Cc1nc(CN2CCCC(N(C)Cc3c(C)noc3C)C2)no1 (centres undefined) showed a cytotoxicity at 70.5 h of 10.6%. Work on CC(C)c1nc2n(n1)CC(NCc1nc(-c3cccnc3)no1)CC2 (centres undefined) yielded a cytotoxicity at 70.5 h of 21.9%. Work on CC(C)c1nccn1C1CCCN(C(=O)c2ccc3c(c2)OCO3)C1 (centres undefined) yielded a cytotoxicity at 70.5 h of -12.1%. In the case of Cc1n[nH]c(C)c1NC(=O)CN1CCn2c(nnc2C(C)C)C1, the cytotoxicity at 70.5 h was -7.95%. For CN(Cc1nnc(-c2ccco2)o1)CC1CCCN1c1cccnn1 (centres undefined), the cytotoxicity at 70.5 h was 5.51%. Work on Cc1cc(CN(C)C(=O)C2CCS(=O)(=O)C2)no1 (centres undefined) yielded a cytotoxicity at 70.5 h of 2.42%. Molecule CC(=O)Nc1nc(C(=O)NC(C)c2ccc3c(c2)OCCO3)cs1 (centres undefined) has a cytotoxicity at 70.5 h of -11.4%. Cc1csc(CNC(=O)NCCc2ccc3c(c2)OCCO3)n1 gave a cytotoxicity at 70.5 h of 20.8%. With Cc1noc(C2CCCN(C(=O)c3ccc(Br)o3)C2)n1 (centres undefined) the cytotoxicity at 70.5 h was 19.7%. With CCCNC(=O)NC(=O)CN(CC(C)O)c1ccccc1 (centres undefined) the cytotoxicity at 70.5 h was -3.55%. Work on CC(O)CN(CC(=O)NC(=O)NC1CC1)c1ccccc1 (centres undefined) yielded a cytotoxicity at 70.5 h of -11%. Work on O=C(Cc1ccc(-n2cccn2)cc1)N1CCCC(n2cccn2)C1 (centres undefined) yielded a cytotoxicity at 70.5 h of 17.4%. Molecule Cc1cnn(C2CCCN(C(=O)c3ccn(C)c(=O)c3)C2)c1 (centres undefined) has a cytotoxicity at 70.5 h of -11.3%. With COc1ccccc1CC1CCCN(CCC#N)C1 (centres undefined) the cytotoxicity at 70.5 h was -13.9%. Molecule CCOc1ccccc1-c1noc(CN2CC(n3cccn3)C2)n1 has a cytotoxicity at 70.5 h of -14.4%. Work on O=C(Cc1ccc2c(c1)OCCO2)N1CCCC(n2ccnc2)C1 (centres undefined) yielded a cytotoxicity at 70.5 h of 18.8%. With CCn1nc(C(=O)N2CCCC(n3cncn3)C2)ccc1=O (centres undefined) the cytotoxicity at 70.5 h was -14.8%. In the case of CCOc1ccccc1-c1noc(CN2CCCC(O)C2)n1 (centres undefined), the cytotoxicity at 70.5 h was -11.1%. In the case of CN(Cc1ccsc1)C(=O)CN1CCCC1Cn1cccn1 (centres undefined), the cytotoxicity at 70.5 h was -13.8%. CCc1nc(C2CCCN2Cc2nc3ccccc3o2)no1 (centres undefined) showed a cytotoxicity at 70.5 h of -17.9%. Molecule CCc1nc(C2CCCN2Cc2nnc(Cc3ccccc3)o2)no1 (centres undefined) has a cytotoxicity at 70.5 h of -10.8%. In the case of CN(Cc1ccco1)C(=O)CN1CCCCC1Cn1cccn1 (centres undefined), the cytotoxicity at 70.5 h was -12.4%. Work on Cn1cc(-c2nc(CNCCn3cccn3)cs2)cn1 yielded a cytotoxicity at 70.5 h of 12.5%. Molecule Cc1n[nH]c(=O)c2c(NC(=O)CN3CCCC(C(F)(F)F)C3)oc(C)c12 (centres undefined) has a cytotoxicity at 70.5 h of 15.7%. Work on COC(=O)COc1cccc(NS(=O)(=O)c2cc(C(=O)O)cs2)c1 yielded a cytotoxicity at 70.5 h of 10.9%. COc1ccc(S(N)(=O)=O)cc1C(=O)N(C)Cc1cc(C)on1 gave a cytotoxicity at 70.5 h of 24.6%. For Cc1ccsc1CN(C)Cc1nc2c(cnn2C)c(=O)[nH]1, the cytotoxicity at 70.5 h was -7.29%. In the case of CC(C)(C)c1cn2nc(N3CCOC(Cn4cncn4)C3)sc2n1 (centres undefined), the cytotoxicity at 70.5 h was -15.9%.
